According to PMC12775434, “Ultra-large virtual screening unveils potent agonists of the neuromodulatory orphan receptor GPR139” (Nature Communications, 2025):
Where “and” joins values, the source holds several entries; their conditions need not be identical. Equal entries are not always repeated.

Tests used:
[1] = biological target: T1, GPR139 (Homo sapiens, UniProt Q6DWJ6); test: Ca2+ mobilization assay, agonist mode, stable GPR139-CHOk1 cell line; format: cell-based
T1 sequence (Q6DWJ6 1-353): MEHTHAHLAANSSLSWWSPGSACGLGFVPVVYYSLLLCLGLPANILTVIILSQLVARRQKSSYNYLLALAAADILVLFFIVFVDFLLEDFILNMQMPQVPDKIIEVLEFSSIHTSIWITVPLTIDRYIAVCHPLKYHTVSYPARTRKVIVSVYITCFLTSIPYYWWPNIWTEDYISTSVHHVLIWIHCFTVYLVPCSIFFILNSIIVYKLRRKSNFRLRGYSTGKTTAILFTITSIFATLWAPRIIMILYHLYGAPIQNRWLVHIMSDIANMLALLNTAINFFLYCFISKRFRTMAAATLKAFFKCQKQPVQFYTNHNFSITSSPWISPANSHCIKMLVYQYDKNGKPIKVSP
Experimental: Primary screening and pharmacological characterization of compounds were performed using a CHO-K1 cell line that stably expresses human GPR139 (GPR139-CHOk1). The GPR139-CHOk1 cell line was kindly provided by H. Lundbeck A/S, Denmark[24]. GPR139-CHOk1 cells were grown in Ham’s F-12 Kaighn’s Modification Medium (ThermoFisher #21127030) supplemented with 10% dialyzed fetal bovine serum (US origin, ThermoFisher #26400044), 100 units/mL Penicillin-Streptomycin (ThermoFisher #15140122), and 1 mg/mL Geneticin (ThermoFisher #11811031). […] M1R-CHOk1 cells were purchased from The Missouri S&T cDNA Resource Center (#CEM100TN00). M1R-CHOk1 cells were grown in Ham’s F12 Medium (ThermoFisher #21765029) supplemented with 10% fetal bovine serum (Brazilian origin, ThermoFisher #10270106), 100 units/mL Penicillin-Streptomycin, and 0.25 mg/mL Geneticin. HEK293A cells transiently transfected with GPR139 were used for additional pharmacological assessment of signaling pathways activated by GPR139. HEK239A cells were generously provided by Dr. Asuka Inoue, Tohoku University, Japan. HEK293A cells were grown in Dulbecco’s Modified Eagle Medium (ThermoFisher #31966047) supplemented with 10% dialyzed fetal bovine serum and 100 units/mL Penicillin-Streptomycin. Cell lines were maintained at 37 °C in humidified incubator equilibrated with 5% CO2.
(§1) 30,000 GPR139- or M1R-CHOk1 cells/well were seeded in black clear bottom tissue culture treated 96-well plates (Greiner #655090) and grown for 20–24 h. Cells were washed with HEPES buffer (Hank’s Balanced Salt Solution (HBBS) supplemented with 20 mM HEPES, 1 mM MgCl2, and 1 mM CaCl2; pH 7.4). Cells were loaded with 50 µL of 2 µM Fluo-4 AM dye (ThermoFisher #F14202) in HEPES buffer supplemented with 2.5 mM probenecid and 0.01% Pluronic F-68 (ThermoFisher #24040032) for 1 h at 37 °C. Cells were washed with HEPES buffer. 50 µL HEPES buffer supplemented with 2.5 mM probenecid was added, and the cells were incubated for 10 min at 37 °C before measurement. 50 µL test compounds diluted in HEPES buffer from DMSO stocks (final DMSO concentration of maximally 0.3%) were added automatically after baseline measurements. The intracellular calcium mobilization was measured on a FlexStation 3 Multimode Microplate Reader (Molecular Devices) at 37 °C with filters for excitation of 485 nm and emission of 525 nm.
(§2) Our primary compound screening protocol consisted of two subsequent steps that allowed to screen for agonists and antagonists simultaneously. In the first step, the screening compounds were applied at 10 µM to test for agonist activity (agonist mode). Following 20 min incubation with the compounds added in the first step, in the second step, an EC80 concentration (800 nM) of the reference agonist Lundbeck Cmp 1a was applied to test for antagonist activity (antagonist mode).
Pharmacological data and statistical analyses were performed in GraphPad Prism v9–10 (Graphpad Software Inc., San Diego, CA), which are also specifically described in the figure and table legends. The functional assay responses were normalized to buffer (0%) and Lundbeck Cmp 1a or JNJ-63533054 (100%), for Ca^2+ and IP1 experiments in the GPR139-CHOk1 stable cell line or Ca^2+, G protein activation, and arrestin-3 recruitment experiments in the HEK293A cells transiently transfected with GPR139, respectively. Data are from at least three independent experiments, unless stated otherwise. Concentration-response curves were fitted applying non-linear regression using the log (agonist) versus response model with variable slope. ANOVA was applied for comparing results and determining statistical significance.

[2] = biological target: T1, GPR139; test: Ca2+ mobilization assay, antagonist mode (EC80 800 nM Lundbeck Cmp 1a after 20 min preincubation), GPR139-CHOk1; format: cell-based; conditions: individual replicates (Supplementary Figure 1)
Experimental: as §1
as §2, with “(antagonist mode). In the agonist mode (first step) response is seen only with compounds having agonist activity (Cmp 1a), but not with non-receptor-binding compounds (Vehicle) or antagonists (NCRW0105-E06) (Supplementary Fig. 14). […] No antagonist compounds were identified in this study.” for “(antagonist mode).”

[3] = Agonist mode, individual replicates (Supplementary Figure 1)

Compound	Ca2+ signal (% of Cmp 1a) [1, 3]	Ca2+ signal (% of Cmp 1a) [2]	Ca2+ signal (% of Cmp 1a) ([1]; primary screen, 10 µM compound, agonist mode, three columns = independent experiments)
Cc1ccc(NC(=O)C2Cc3ccccc32)cc1C(=O)N(C)C(C)C (stereo not drawn) [Compound 41, CC(C)N(C)C(=O)C=1C=C(NC(=O)C2CC=3C=CC=CC23)C=CC1C]	0.898 % of Cmp 1a and -4.45 % of Cmp 1a and -1.11 % of Cmp 1a	75.8841 % of Cmp 1a and 100.088 % of Cmp 1a and 66.5963 % of Cmp 1a	
Cn1nc(-c2ccc(F)cc2F)cc1NC(=O)NCc1ccccn1 [Compound 42, CN1N=C(C=C1NC(=O)NCC=2C=CC=CN2)C=3C=CC(F)=CC3F]	0.111 % of Cmp 1a and 2.67 % of Cmp 1a and 15 % of Cmp 1a	73.5301 % of Cmp 1a and 76.7288 % of Cmp 1a and 79.4888 % of Cmp 1a	
O=C(Nc1ccnc(OCc2ccccc2)c1)C1Cc2ccccc21 (stereo not drawn) [Compound 43, O=C(NC=1C=CN=C(OCC=2C=CC=CC2)C1)C3CC=4C=CC=CC34]	0.84 % of Cmp 1a and 9 % of Cmp 1a and 13 % of Cmp 1a	90.3553 % of Cmp 1a and 81.3074 % of Cmp 1a and 78.6074 % of Cmp 1a	
COCC1(CNC(=O)NCc2ccccc2)OCCc2ccccc21 (stereo not drawn) [Compound 44, COCC1(CNC(=O)NCC=2C=CC=CC2)OCCC=3C=CC=CC31]	8 % of Cmp 1a and -1.67 % of Cmp 1a and 19 % of Cmp 1a	80.8112 % of Cmp 1a and 71.471 % of Cmp 1a and 86.0472 % of Cmp 1a	
CCn1c(Nc2ccn(C)n2)nnc1-c1n[nH]c(=O)c2ccccc12 [Compound 45, CCN1C(NC=2C=CN(C)N2)=NN=C1C3=NNC(=O)C=4C=CC=CC34]	0.117 % of Cmp 1a and 7 % of Cmp 1a and 8 % of Cmp 1a	78.1245 % of Cmp 1a and 83.0928 % of Cmp 1a and 73.9872 % of Cmp 1a	
O=C(CCn1cnc2cc(Cl)ccc2c1=O)Nc1ccccc1F [Compound 46, FC=1C=CC=CC1NC(=O)CCN2C=NC=3C=C(Cl)C=CC3C2=O]	2.73 % of Cmp 1a and -6 % of Cmp 1a (2×)	71.2649 % of Cmp 1a and 88.164 % of Cmp 1a and 80.2917 % of Cmp 1a	
CC(=O)Nc1nc(Cn2cnc3c2CC(C)C(C)C3)cs1 (stereo not drawn) [Compound 47, CC1CC=2N=CN(CC3=CSC(NC(=O)C)=N3)C2CC1C]	-0.697 % of Cmp 1a and 10 % of Cmp 1a and 0.881 % of Cmp 1a	79.7228 % of Cmp 1a and 79.8068 % of Cmp 1a and 92.3954 % of Cmp 1a	
Cc1cc2c(=O)n(CC(O)C(C)c3ccccc3)cnc2cc1F (stereo not drawn) [Compound 48, CC(C(O)CN1C=NC=2C=C(F)C(C)=CC2C1=O)C=3C=CC=CC3]	3.29 % of Cmp 1a and 10 % of Cmp 1a and 6 % of Cmp 1a	94.1087 % of Cmp 1a and 84.538 % of Cmp 1a and 82.6111 % of Cmp 1a	
Cc1ccc(C(C)NC(=O)Nc2ccc3c(c2)CCCC3=O)o1 (stereo not drawn) [Compound 49, CC(NC(=O)NC=1C=CC=2C(=O)CCCC2C1)C3=CC=C(C)O3]	20 % of Cmp 1a and 6 % of Cmp 1a and 32 % of Cmp 1a	51.3038 % of Cmp 1a and 78.2883 % of Cmp 1a and 60.6272 % of Cmp 1a	
CC(NC(=O)N(C)Cc1cccc(N(C)C)c1)c1csnn1 (stereo not drawn) [Compound 50, CC(NC(=O)N(C)CC=1C=CC=C(C1)N(C)C)C2=CSN=N2]	-2.47 % of Cmp 1a and 0.0154 % of Cmp 1a and -4 % of Cmp 1a	75.065 % of Cmp 1a and 68.1289 % of Cmp 1a and 85.7156 % of Cmp 1a	
CC(Sc1nnc(C(C)(C)C)[nH]1)C(=O)NC(C)c1ccccc1 (stereo not drawn) [Compound 51, CC(NC(=O)C(C)SC1=NN=C(N1)C(C)(C)C)C=2C=CC=CC2]	-5 % of Cmp 1a and -3 % of Cmp 1a and 10 % of Cmp 1a	68.4513 % of Cmp 1a and 72.762 % of Cmp 1a and 87.4722 % of Cmp 1a	
CC1(C)COc2cc(NC(=O)NCc3cccnn3)ccc21 [Compound 52, CC1(C)COC=2C=C(NC(=O)NCC=3C=CC=NN3)C=CC21]	1.65 % of Cmp 1a and 1.26 % of Cmp 1a and 1.78 % of Cmp 1a	71.4617 % of Cmp 1a and 78.215 % of Cmp 1a and 78.5023 % of Cmp 1a	1.65 % of Cmp 1a and 1.26 % of Cmp 1a and 1.78 % of Cmp 1a
C[C@@H](NC(=O)CSc1nnc2n1CCCCC2)c1ccccc1 [Compound 53, C[C@@H](NC(=O)CSC1=NN=C2CCCCCN12)C=3C=CC=CC3]	10 % of Cmp 1a and 6 % of Cmp 1a and 3.73 % of Cmp 1a	70.6126 % of Cmp 1a and 69.0784 % of Cmp 1a and 84.522 % of Cmp 1a	
C[C@@H](NC(=O)CSc1nnc(C(F)(F)F)s1)c1ccccc1 [Compound 54, C[C@@H](NC(=O)CSC1=NN=C(S1)C(F)(F)F)C=2C=CC=CC2]	0.563 % of Cmp 1a and 1.54 % of Cmp 1a and 23 % of Cmp 1a	75.2455 % of Cmp 1a and 70.4918 % of Cmp 1a and 82.6113 % of Cmp 1a	
C[C@@H](NC(=O)Cn1c2c(sc1=O)CCCCC2)c1ccccc1 [Compound 55, C[C@@H](NC(=O)CN1C=2CCCCCC2SC1=O)C=3C=CC=CC3]	18 % of Cmp 1a and -2.59 % of Cmp 1a and 22 % of Cmp 1a	74.6627 % of Cmp 1a and 75.4146 % of Cmp 1a and 90.0274 % of Cmp 1a	
Cc1ccc(C(C)(C)NC(=O)Nc2cnc3nccn3c2)cn1 [Compound 56, CC=1C=CC(=CN1)C(C)(C)NC(=O)NC=2C=NC3=NC=CN3C2]	5.3 % of Cmp 1a	82.8713 % of Cmp 1a	
O=C(CCn1nnn(-c2ccccc2)c1=O)Nc1ccc(F)cc1 [Compound 57, FC=1C=CC(NC(=O)CCN2N=NN(C=3C=CC=CC3)C2=O)=CC1]	6 % of Cmp 1a and 0.524 % of Cmp 1a and 4 % of Cmp 1a	80.3514 % of Cmp 1a and 84.9179 % of Cmp 1a and 81.9632 % of Cmp 1a	
O=C(Nc1nc(C(F)(F)F)cs1)c1ccccc1-n1cnnn1 [Compound 58, FC(F)(F)C1=CSC(NC(=O)C=2C=CC=CC2N3C=NN=N3)=N1]	8 % of Cmp 1a and -1.73 % of Cmp 1a and -5 % of Cmp 1a	95.3999 % of Cmp 1a and 91.9653 % of Cmp 1a and 85.8363 % of Cmp 1a	
Cc1ccc(Oc2ccc(NC(=O)C(C)n3cccn3)cn2)cc1 (stereo not drawn) [Compound 59, CC(C(=O)NC=1C=CC(OC=2C=CC(C)=CC2)=NC1)N3C=CC=N3]	-2 % of Cmp 1a and -8 % of Cmp 1a and 2.12 % of Cmp 1a	78.8114 % of Cmp 1a and 81.7621 % of Cmp 1a and 78.2182 % of Cmp 1a	
